Our source for the IC50 values is patent US8198273B2, “Compounds and methods for kinase modulation, and indications therefor” (Plexxikon Inc., priority 2009, dated 2012).

In data set [1] the target is B-Raf V600E (Homo sapiens, UniProt P15056, V600E). Put plainly: B-Raf V600E biochemical kinase inhibition (AlphaScreen, biotin-MEK1 substrate). The note with it: 100 μM ATP. The procedure, abridged:
(§1)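 Serial 1:3 dilutions of compound (0.1 mM DMSO stock, eight points) were added first, then ATP to start the reaction at 100 μM final.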

For data set [2], the target named is c-Raf-1 (Homo sapiens, UniProt P04049). Nature of the data set: c-Raf-1 biochemical kinase inhibition (AlphaScreen, biotin-MEK1 substrate). As to conditions: 100 μM ATP. The essentials: as §1
(Alpha assays give light when donor and acceptor beads are brought close together.)

The subject of data set [3] is COLO205 colon adenocarcinoma cells (B-Raf V600E). Put plainly: COLO205 cell growth inhibition (ATPlite). The data set is classed as cell-based. As to conditions: Homo sapiens, COLO 205, 72 h; COLO205, 3 days incubation. The procedure, abridged:
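ATPlite luminescence, taken as a cell-number measure, gave IC50 values after a 3-day 37° C, 5% CO2 incubation. Compounds were tested as 8-point threefold titrations, highest final concentration 10 μM, added to cells seeded the day before.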
(In general: Cellular ATP, detected with luciferase, serves as a proxy for viable cell number.)

For data set [4], the target named is CYP3A4(BFC) (Homo sapiens, UniProt P08684). Nature of the data set: CYP3A4(BFC) inhibition (fluorescent substrate). The note with it: read-out: Cyp IC50 3A4(BFC). The data set is classed as in vitro ADME. The procedure, abridged: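 Compound, from a 100 mM DMSO stock and diluted 1:1 over 10 points in co-factor mix, was incubated at 37° C with enzyme and a known substrate. Decrease in fluorescent product against concentration gave the IC50.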
Sequence of CYP3A4(BFC) (P08684 whole entry): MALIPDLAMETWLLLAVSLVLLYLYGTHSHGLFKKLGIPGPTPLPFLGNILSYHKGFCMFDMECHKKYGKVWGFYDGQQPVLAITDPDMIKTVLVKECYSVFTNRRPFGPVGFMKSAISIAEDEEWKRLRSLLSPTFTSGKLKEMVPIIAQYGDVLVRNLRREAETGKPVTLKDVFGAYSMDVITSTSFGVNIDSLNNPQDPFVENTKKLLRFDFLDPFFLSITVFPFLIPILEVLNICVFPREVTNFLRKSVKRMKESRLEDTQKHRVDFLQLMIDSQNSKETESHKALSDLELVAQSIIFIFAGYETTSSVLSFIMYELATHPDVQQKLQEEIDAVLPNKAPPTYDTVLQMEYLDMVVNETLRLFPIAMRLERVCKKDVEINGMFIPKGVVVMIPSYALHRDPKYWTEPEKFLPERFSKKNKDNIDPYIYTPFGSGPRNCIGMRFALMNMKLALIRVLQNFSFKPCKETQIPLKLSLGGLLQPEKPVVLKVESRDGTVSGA

Sequence of c-Raf-1 (P04049 whole entry): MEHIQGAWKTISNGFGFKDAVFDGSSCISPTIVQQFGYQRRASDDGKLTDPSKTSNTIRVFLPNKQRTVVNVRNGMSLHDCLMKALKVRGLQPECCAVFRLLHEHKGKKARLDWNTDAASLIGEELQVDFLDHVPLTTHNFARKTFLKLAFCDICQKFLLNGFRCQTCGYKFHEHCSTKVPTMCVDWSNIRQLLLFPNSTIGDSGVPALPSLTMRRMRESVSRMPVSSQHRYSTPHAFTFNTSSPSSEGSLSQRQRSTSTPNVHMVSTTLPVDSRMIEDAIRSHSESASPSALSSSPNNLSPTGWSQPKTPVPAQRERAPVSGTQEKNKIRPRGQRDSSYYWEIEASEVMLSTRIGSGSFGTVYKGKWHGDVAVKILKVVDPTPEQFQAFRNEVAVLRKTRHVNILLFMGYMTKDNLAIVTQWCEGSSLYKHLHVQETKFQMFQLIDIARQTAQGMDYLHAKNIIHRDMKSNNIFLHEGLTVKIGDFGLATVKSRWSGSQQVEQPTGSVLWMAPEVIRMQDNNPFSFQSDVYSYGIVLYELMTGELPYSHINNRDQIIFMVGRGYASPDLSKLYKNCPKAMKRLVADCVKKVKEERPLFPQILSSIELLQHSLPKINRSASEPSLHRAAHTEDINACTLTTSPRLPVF
Sequence of B-Raf V600E (P15056 whole entry V600E): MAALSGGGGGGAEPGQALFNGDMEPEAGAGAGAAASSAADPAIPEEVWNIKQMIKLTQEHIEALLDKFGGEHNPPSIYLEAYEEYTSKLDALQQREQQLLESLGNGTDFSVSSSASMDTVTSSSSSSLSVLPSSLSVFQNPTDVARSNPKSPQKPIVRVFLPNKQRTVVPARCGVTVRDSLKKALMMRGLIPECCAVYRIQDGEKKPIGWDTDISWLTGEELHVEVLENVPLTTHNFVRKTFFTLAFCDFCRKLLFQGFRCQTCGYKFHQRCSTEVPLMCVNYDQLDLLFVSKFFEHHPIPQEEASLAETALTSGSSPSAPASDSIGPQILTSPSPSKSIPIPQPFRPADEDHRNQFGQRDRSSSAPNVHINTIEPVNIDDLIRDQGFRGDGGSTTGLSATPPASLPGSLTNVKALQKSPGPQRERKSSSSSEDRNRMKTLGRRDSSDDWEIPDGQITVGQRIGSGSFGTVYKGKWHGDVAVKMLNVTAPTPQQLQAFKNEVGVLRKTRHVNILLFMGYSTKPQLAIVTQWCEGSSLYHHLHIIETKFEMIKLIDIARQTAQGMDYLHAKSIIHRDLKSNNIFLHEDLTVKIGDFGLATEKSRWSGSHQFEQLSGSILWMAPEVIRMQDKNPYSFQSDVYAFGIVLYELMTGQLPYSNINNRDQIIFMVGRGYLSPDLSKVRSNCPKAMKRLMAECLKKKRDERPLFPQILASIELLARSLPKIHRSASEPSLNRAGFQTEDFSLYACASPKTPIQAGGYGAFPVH

As to `CCCS(=O)(=O)Nc1ccc(F)c(C(=O)c2c[nH]c3ncc(-c4ccc(N(C)C)nc4)cc23)c1F` [P-2229, Propane-1-sulfonic acid {3-[5-(6-dimethylamino-pyridin-3-yl)-1H-pyrrolo[2,3-b]pyridine-3-carbonyl]-2,4-difluoro-phenyl}-amide], the IC50 in data set [1] was less than 100 nM; in data set [2], less than 100 nM; in data set [3], less than 100 nM; in data set [4], more than 10000 nM.

In general, IC50 refers to the concentration at which inhibition is half-maximal.
